Test results reported in the supplement of paper PMC6045584.
± gives the standard deviation of the averaged measurements.

Compound: COCC[n+]1c2c(n(Cc3cnccn3)c1C)C(=O)c1ccccc1C2=O [YM155]
Assay: surviving fraction relative to DMSO-only wells; higher = less growth inhibition
Settings: 50 nM; exposure time: 5 days
In short: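 Viability values are CellTiter-Glo luminescence readings, given as surviving fraction against the median of DMSO-only wells. The readings were taken after 10 minutes at room temperature, following five days of continuous exposure to inhibitors at 0.5, 1, 5, 10, 50, 100, 500 and 1000 nM that began 24 hours after log-phase tumour cell lines were seeded at 250–500 cells per well in 384-well plates. Every line was screened three times and kept only if replicate Pearson r >0.7 and median Z' >0.3.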

Row | Test System | surviving fraction
1 | MFM223 BREAST | 0.0798 ± 0.051
2 | MG63 BONE | 0.0477 ± 0.0021
3 | MHM BONE | 0.299 ± 0.013
4 | NCIH441 LUNG | 0.0333 ± 0.0011
5 | NOS1 BONE | 0.0643 ± 0.0076
6 | NY BONE | 1.01 ± 0.02
7 | OS25HAL BONE | 0.0603 ± 0.0068
8 | OSHN BONE | 0.0293 ± 0.0011
9 | RDES SOFT TISSUE | 0.0673 ± 0.0035
10 | SCC47 HEADNECK | 0.0263 ± 0.0025
11 | SCC90 HEADNECK | 0.676 ± 0.085
12 | SG27 HEADNECK | 0.105 ± 0.035
13 | SG28 HEADNECK | 0.105 ± 0.005
14 | SG31 HEADNECK | 0.391 ± 0.13
15 | SG32 HEADNECK | 0.0633 ± 0.027
16 | SG43 HEADNECK | 0.783 ± 0.052
17 | SIHA CERVIX | 0.0433 ± 0.0055
18 | SJSA1 BONE | 1.7 ± 0.11
19 | SKBR3 BREAST | 0.0403 ± 0.012
20 | SNU475 LIVER | 0.372 ± 0.035
21 | SUM44 BREAST | 0.358 ± 0.12
22 | SUM149.B1*.S BREAST | 0.0738 ± 0.0063
23 | SUM159 BREAST | 0.069 ± 0.0098
24 | SYO1 SYNOVIAL | 0.0558 ± 0.0015
25 | T47D BREAST | 0.212 ± 0.01
26 | U2OS BONE | 0.033 ± 0.001
27 | VCAP PROSTATE | 0.0533 ± 0.027
28 | VP229 BREAST | 0.265 ± 0.085
29 | YAMATO SYNOVIAL | 0.229 ± 0.014
30 | ZR751 BREAST | 0.128 ± 0.017

Same assay, conditions: 100 nM; exposure time: 5 days

Row | Test System | surviving fraction
31 | MFM223 BREAST | 0.085 ± 0.085
32 | MG63 BONE | 0.0237 ± 0.0015
33 | MHM BONE | 0.202 ± 0.0085
34 | NCIH441 LUNG | 0.0273 ± 0.00058
35 | NOS1 BONE | 0.048 ± 0.0062
36 | NY BONE | 0.988 ± 0.037
37 | OS25HAL BONE | 0.0357 ± 0.0042
38 | OSHN BONE | 0.025 ± 0.001
39 | RDES SOFT TISSUE | 0.0373 ± 0.0015
40 | SCC47 HEADNECK | 0.021 ± 0.001
41 | SCC90 HEADNECK | 0.276 ± 0.039
42 | SG27 HEADNECK | 0.0347 ± 0.0038
43 | SG28 HEADNECK | 0.058 ± 0.013
44 | SG31 HEADNECK | 0.291 ± 0.15
45 | SG32 HEADNECK | 0.025 ± 0.0036
46 | SG43 HEADNECK | 0.705 ± 0.084
47 | SIHA CERVIX | 0.022 ± 0.002
48 | SJSA1 BONE | 1.7 ± 0.074
49 | SKBR3 BREAST | 0.0253 ± 0.0067
50 | SNU475 LIVER | 0.123 ± 0.012
51 | SUM44 BREAST | 0.225 ± 0.055
52 | SUM149.B1*.S BREAST | 0.0278 ± 0.0019
53 | SUM159 BREAST | 0.0383 ± 0.0015
54 | SYO1 SYNOVIAL | 0.0337 ± 0.0012
55 | T47D BREAST | 0.131 ± 0.01
56 | U2OS BONE | 0.023
57 | VCAP PROSTATE | 0.035 ± 0.007
58 | VP229 BREAST | 0.137 ± 0.0015
59 | YAMATO SYNOVIAL | 0.206 ± 0.0017
60 | ZR751 BREAST | 0.0917 ± 0.0067

Same assay, conditions: 500 nM; exposure time: 5 days

Row | Test System | surviving fraction
61 | MFM223 BREAST | 0.116 ± 0.16
62 | MG63 BONE | 0.021 ± 0.001
63 | MHM BONE | 0.0287 ± 0.0011
64 | NCIH441 LUNG | 0.023 ± 0.001
65 | NOS1 BONE | 0.0337 ± 0.0058
66 | NY BONE | 0.449 ± 0.023
67 | OS25HAL BONE | 0.0193 ± 0.00058
68 | OSHN BONE | 0.0203 ± 0.00058
69 | RDES SOFT TISSUE | 0.036 ± 0.002
70 | SCC47 HEADNECK | 0.0197 ± 0.00058
71 | SCC90 HEADNECK | 0.0483 ± 0.0067
72 | SG27 HEADNECK | 0.0367 ± 0.02
73 | SG28 HEADNECK | 0.0285 ± 0.00071
74 | SG31 HEADNECK | 0.0993 ± 0.037
75 | SG32 HEADNECK | 0.0197 ± 0.0021
76 | SG43 HEADNECK | 0.159 ± 0.058
77 | SIHA CERVIX | 0.0197 ± 0.00058
78 | SJSA1 BONE | 1.6 ± 0.15
79 | SKBR3 BREAST | 0.0247 ± 0.0074
80 | SNU475 LIVER | 0.0263 ± 0.00058
81 | SUM44 BREAST | 0.121 ± 0.049
82 | SUM149.B1*.S BREAST | 0.0225 ± 0.00087
83 | SUM159 BREAST | 0.0217 ± 0.00058
84 | SYO1 SYNOVIAL | 0.0242 ± 0.00051
85 | T47D BREAST | 0.0481 ± 0.0042
86 | U2OS BONE | 0.021
87 | VCAP PROSTATE | 0.0293 ± 0.0067
88 | VP229 BREAST | 0.046 ± 0.01
89 | YAMATO SYNOVIAL | 0.191 ± 0.015
90 | ZR751 BREAST | 0.0307 ± 0.0055

Same assay, conditions: 1000 nM; exposure time: 5 days

Row | Test System | surviving fraction
91 | MFM223 BREAST | 0.138 ± 0.18
92 | MG63 BONE | 0.027 ± 0.0017
93 | MHM BONE | 0.0323 ± 0.00058
94 | NCIH441 LUNG | 0.0267 ± 0.0011
95 | NOS1 BONE | 0.0323 ± 0.0025
96 | NY BONE | 0.346 ± 0.0047
97 | OS25HAL BONE | 0.0267 ± 0.0021
98 | OSHN BONE | 0.027 ± 0.0017
99 | RDES SOFT TISSUE | 0.0367 ± 0.0021
100 | SCC47 HEADNECK | 0.023 ± 0.001
101 | SCC90 HEADNECK | 0.0363 ± 0.0031
102 | SG27 HEADNECK | 0.048 ± 0.017
103 | SG28 HEADNECK | 0.033 ± 0.0014
104 | SG31 HEADNECK | 0.104 ± 0.064
105 | SG32 HEADNECK | 0.0227 ± 0.0011
106 | SG43 HEADNECK | 0.0523 ± 0.0084
107 | SIHA CERVIX | 0.0243 ± 0.0015
108 | SJSA1 BONE | 1.53 ± 0.16
109 | SKBR3 BREAST | 0.0243 ± 0.0058
110 | SNU475 LIVER | 0.0303 ± 0.0015
111 | SUM44 BREAST | 0.125 ± 0.064
112 | SUM149.B1*.S BREAST | 0.0277 ± 0.0011
113 | SUM159 BREAST | 0.0273 ± 0.00058
114 | SYO1 SYNOVIAL | 0.0279 ± 0.0021
115 | T47D BREAST | 0.0483 ± 0.0017
116 | U2OS BONE | 0.0247 ± 0.00058
117 | VCAP PROSTATE | 0.0617 ± 0.03
118 | VP229 BREAST | 0.042 ± 0.007
119 | YAMATO SYNOVIAL | 0.267 ± 0.016
120 | ZR751 BREAST | 0.0287 ± 0.0031
